In patent US20170314007A1, “MEDICAMENT DESIGN POCKET OF ORNITHINE DECARBOXYLASE AND APPLICATION OF MEDICAMENT DESIGN POCKET” (CHINA THREE GORGES UNIVERSITY, priority 2014, published 2017):

Biological target: T1, human ODC (Homo sapiens, UniProt P11926)
T1 construct: His tag (from pET28a); made in house; host or cells: Escherichia coli BL21
T1 sequence (P11926 1-461): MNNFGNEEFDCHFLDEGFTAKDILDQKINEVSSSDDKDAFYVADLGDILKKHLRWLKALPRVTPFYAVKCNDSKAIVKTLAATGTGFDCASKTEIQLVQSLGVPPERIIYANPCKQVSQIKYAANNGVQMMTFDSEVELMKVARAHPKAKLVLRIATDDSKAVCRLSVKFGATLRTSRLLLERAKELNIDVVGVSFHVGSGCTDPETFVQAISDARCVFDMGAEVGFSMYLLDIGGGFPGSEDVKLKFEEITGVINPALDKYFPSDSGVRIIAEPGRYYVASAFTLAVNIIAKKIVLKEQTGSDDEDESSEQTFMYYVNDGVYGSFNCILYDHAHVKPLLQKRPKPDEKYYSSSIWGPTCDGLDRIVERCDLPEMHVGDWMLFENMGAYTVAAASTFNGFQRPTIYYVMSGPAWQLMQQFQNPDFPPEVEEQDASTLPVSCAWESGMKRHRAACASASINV
Experiment: Detection of inhibitory activity of inhibitor for human ODC protein (absorbance at 426 nm, ODC inhibition ratio)
Assay type: biochemical
Conditions: for inhibitory capacity on human ODC compared with DFMO: 1 mM of the medicament, comparison of histograms with DFMO inhibitor
Procedure: 400 uL substrate reaction mixture and 50 ug ODC protein are added to EP tube, mixed evenly, and the EP tube is placed in 37° C. water bath for 30 min; 400 uL 10% TDA is added to terminate the reaction, centrifuged 5 min at 5000 rpm at room temperature, then 100 uL supernatant is fetched and mixed with 200 uL of 4 mol/L NaOH, 400 uL of n-amyl alcohol is added to mix well, centrifuged 5min at 2000 rpm, then 200 uL of the supernatant is transferred to a new EP tube, and 200 uL of 0.1 mol/L sodium tetraborate (pH 8.0) is added to mix evenly, and 200 uL of 10 mmol/L trinitrobenzene sulfonic acid is added to mix fully, and then 400 uL DMSO is added to fix fully for 1 min, centrifuged 5 min at 3000 rpm; finally the supernatant is fetched to 96-well plate and its absorbance at 426 nm is detected by a microplate reader, to get the OD value with out adding […];
According to the method described in step 4), after adding 400 μL substrate reaction mixture, the ODC inhibitor is added immediately, and subsequent procedures are the same as the step 4);
The ODC inhibition ratio is calculated according to the following formula;
Control difference=the mean OD value of the control group adding the inhibitor−the mean OD value of the control group without adding inhibitor, of which, the inhibitor added in step 5) in the control group is DFMO inhibitor;
Experimental difference= the mean OD value of the experiment group adding the inhibitor−the mean OD value of the experiment group without adding inhibitor.
ODC inhibition ratio=[(control difference-experimental difference)/control difference]×100%.
The substrate reaction mixture in step 4): dissolve 17.57 ul β-mercaptoethanol, 55.84mg of 1.5 mM EDTA disodium salt, 75 nM PLP stock solution and 2 mM ornithine hydrochloride in 150 mM PBS (pH 7.1).
400 uL substrate reaction mixture (17.57 ul of β-mercaptoethanol, 55.84 mg of 1.5 mM EDTA disodium salt, 75 nM PLP stock solution, 2 mM ornithine hydrochloride are dissolved in 150 mM PBS (pH 7.1)) and 50 ug ODC protein are added to a 1.5 mL of EP tube, mixed evenly, and the EP tube is placed in 37° C water bath for 30 min; 400 uL 10% TDA is added to terminate the reaction, centrifuged 5 min at 5000 rpm at room temperature, then 100 uL supernatant is fetched and mixed with 200 uL of 4 mol/L NaOH, 400 uL of n-amyl alcohol is added to mix well, centrifuged 5 min at 2000 rpm then 200 uL of the supernatant is transferred to a new EP tube, and 200 uL of sodium tetraborate (0.1 mol/L, pH 8.0) is added to mix evenly, and 200 uL of 10 mmol/L trinitrobenzene sulfonic acid is added to mix fully, and then 400 uL DMSO is added to fix fully for 1 min, centrifuged 5 min at 3000 rpm, finally the supernatant is fetched to 96-well plate and its absorbance at 426 nm is detected by a microplate reader. […]

Row | SMILES | inhibitory capacity on human ODC compared with DFMO | other results
1 | N#Cc1ccc(C2Nc3cccc4cccc(c34)N2)cc1 |  | inhibitory activity on human ODC (concentration range 1 nM-5 mM, histogram FIG. 5): has the ability to inhibit human ODC activity within the range of 1 nM-5 mM, and the higher the concentration, the stronger tire inhibitory ability
2 | CN(C)c1ccc(/C=N/Nc2nc(N)nc(N)n2)cc1 [4-(dimethylamino)-benzaldehyde-(4,6-diamino-1,3,5) triazine] |  | inhibitory activity on human ODC (concentration range 1 nM-1 mM, histogram FIG. 9, compared with DFMO): has inhibitory effect on human ODC activity within the concentration range of 1 nM-1 mM
3 | CCOC(=O)c1cccc(NC(=O)c2ccccc2)c1 [D17, ethyl-3-(benzoylamino) methyl benzoate] | equivalent to that of 2.5 mM DFMO | 
4 | COc1ccc(C(=O)C[n+]2ccccc2/C=N/[O-])cc1 [D19, 2-[(hydroxyimino)methyl]-1-[2-(4-methoxyphenyl)-2-oxoethyl] pyridinium] | equivalent to that of 2.5 mM DFMO | 
